The results in this text go back to patent EP4556465A1, “NOVEL BICYCLIC PD-L1 INHIBITORS, PREPARATION METHODS THEREFOR AND MEDICINAL USES THEREOF” (priority 2022, dated 2024).

The subject of series [1] is SD rats. In words: Acute toxicity test, single oral gavage. Type of series: in vivo. The following applies: 500 mg/kg, 1000 mg/kg and 2000 mg/kg. The protocol:
(§1) • Animal species and number: SD rats; 6 rats in each group (half male and half female); Mode of administration: oral gavage; […]; • Administration frequency: administration once.
(§2) Side-cage observation on the day of administration (D1): frequency and time of observation: side-cage observation of acute toxicity reactions was performed for 4 h after administration of animals in each group, and detailed clinical observations were performed on animals with apparent abnormal manifestations. Mortality, morbidity, respiration, secretion, feces, and diet, water drinking, etc. were observed, and changes in body weight of rats during administration were recorded. Detailed clinical observations include, but are not limited to, behavioral activities, skin, hair, eyes, ears, noses, abdomens, external genitalia, anuses, limbs, feet, and breathing. The animals in each group were euthanized at the end of the observation period, and all animals were dissected and gross observed.

The subject of series [2] is SD rats. Kind of series: Safety test after repeated administration for 14 days. Type of series: in vivo. The following applies: oral gavage 300 mg/kg once a day for 14 days. The protocol: • Animal species and number: SD rats; 6 rats in each group (half male and half female); Mode of administration: oral gavage; […]; • Administration frequency: administration once a day for 14 days.
as §2, with “Side-cage” for “Side-cage observation on the day of administration (D1): frequency and time of observation: side-cage”, “administration,” for “administration of animals in each group,”, “manifestations. General clinical observations included observation twice a day during the test (observation once in the morning and observation once in the afternoon).” for “manifestations.”, “administration,” for “the observation period,”

For series [3], the system named is breast cancer tumor cells 4T1. The following applies: 10 mg/kg, i.g., QD×21 days; for Tumor inhibition rate / tumor-inhibiting efficacy: 4T1 subcutaneous tumor. The procedure: Subsequently, each group of animals was dosed, and the day of first administration was defined as test day 1; • Administration frequency: once a day; • General state observations: observation time and frequency: once a day; observation indicators or content: including, but not limited to, local administration of the animals, appearance signs, general behavioral activity, mental status, death, and other abnormal manifestations. The animals were euthanized at the end of the test. • Calculation of tumor volume: V=1/2×long diameter×short diameter^2 (mm^3).

A further series has as its target T1, hPD-1/hPD-L1 (Homo sapiens, UniProt Q9NZQ7).
T1 construct: purchased CISBIO
In words: PD-1/PD-L1 binding assay kit (CISBIO), HTRF assay of PD-1/PD-L1 protein-protein interaction. Particulars: for inhibitory activity of PD-1/PD-L1 protein-protein interaction compared with BMS-202: HTRF, comparison with BMS-202. The procedure: Experimental objective: the activity of the compounds of formula (I) to inhibit the PD-1/PD-L1 interaction was tested by using a PD-1/PD-L1 binding assay kit (CISBIO).
Experimental principle: HTRF (Homogeneous Time-Resolved Fluorescence) is a technique used to detect substances to be tested in pure liquid phase systems. It primarily utilizes energy transfer of two fluorescent groups, which are divided into an energy donor europium (Eu^+) and an energy acceptor. When the donor is externally excited (e.g., a flash lamp or laser), the energy can be resonantly transferred to the acceptor if the donor is close enough to the acceptor, and the acceptor is excited at a specific wavelength. By using the HTRF technology, the assay enables simple and rapid characterization of compounds and antibody blockers in a high-throughput format. By using anti-Tag1 labeled with Eu^+ (Europium) (the HTRF energy donor) and anti-Tag2 labeled with XL665 (the HTRF energy acceptor), the interaction between PD-L1 and PD-1 can be detected. PD-L1 protein and PD-1 protein are labeled with Tag1 and Tag2, respectively, and Eu^+ and XL665 bind to PD-L1 and PD-1, respectively, through antibodies to form complexes. […] This specific signal is directly proportional to the degree of PD1/PD-L1 interaction.
Experimental materials: kit: PD-1/PD-L1 binding assay kits purchased from CISBIO; and 96-well plate: purchased from CISBIO.
Test instrument: Perkin Elmer, model: EnVision.
Test compounds: the compounds in formula (I).
Experimental procedure: PD-1/PD-L1 binding assay kits were used. […] The plates were sealed by using microplate sealers, centrifuging was performed at 1000 rpm for 1 min, and incubation was performed at room temperature for 15 min. The Anti-Tag-Eu^3+ and Anti-tag-XL665 which were diluted with Buffer were then mixed in equal volumes, then 10 µL of the mixed solution was added to each well, the sealed plates were centrifuged at 1000 rpm for 1 min, and incubation was performed at room temperature for 2 h. […] IC50 of the compounds was calculated by using Graphpad.
A general note: Time-resolved FRET reads energy transfer from a long-lived donor to a nearby acceptor.

The nature of series [4]: Acute toxicity test, single oral gavage. Format: in vivo. Particulars: both sexes, rat, in vivo, po, SD rats, read-out: maximum tolerated dose (MTD). The procedure: as §1, §2

T1 sequence (Q9NZQ7 19-238 limits assumed): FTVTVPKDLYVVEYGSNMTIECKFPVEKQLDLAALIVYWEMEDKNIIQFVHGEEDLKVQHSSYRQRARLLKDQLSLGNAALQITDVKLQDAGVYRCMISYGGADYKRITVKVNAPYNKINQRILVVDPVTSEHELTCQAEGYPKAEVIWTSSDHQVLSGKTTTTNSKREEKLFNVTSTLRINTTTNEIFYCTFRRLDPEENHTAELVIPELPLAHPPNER

Take `OCCN1CCc2nc(OCc3cccc(-c4ccccc4F)c3Cl)ccc2C1` [I-D-18, 2-(2-((2-chloro-2'-fluoro-[1,1'-biphenyl]-3-yl)methoxy)-7,8-dihydro-1,6-naphthyridin-6(5H)-yl)ethan-1-ol]: in the series on SD rats [1], the “gross observation, test sample-related changes” value is “No test sample-related changes were observed grossly” and the mortality or moribundity result was “No mortality or moribundity was observed”. Besides, the “clinical observations (water intake, food intake, activity, body weight)” value (shortened to “clinical observations”) in the series with SD rats [2] was “normal water intake and food intake, normal activity, and normal body weight, with no significant abnormalities”. In series [3], the “general state of tumor-bearing animals during administration (water and food intake, activity, body weight, toxicity)” value was “normal water intake and food intake, normal activity, normal body weight, and no toxicity manifestations”; the Tumor inhibition rate entry is “+++ ("+++" indicates a tumor inhibition rate of more than 60%)”; the tumor-inhibiting efficacy result is on record as “significant tumor-inhibiting efficacy”. On hPD-1/hPD-L1, the half-inhibitory concentration (IC50) – broadly, the concentration needed to halve the response being measured – was determined as 16.3 nM and the “inhibitory activity of PD-1/PD-L1 protein-protein interaction compared with BMS-202” value (“inhibitory activity … compared with BMS-202” for short) is “superior to that of the compound BMS-202”.
Turning to `Cc1ccccc1-c1cccc(COc2ccc3c(n2)CCN(CCO)C3)c1Cl` [I-D-19, 2-(2-((2-chloro-2'-methyl-[1,1'-biphenyl]-3-yl)methoxy)-7,8-dihydro-1,6-naphthyridin-6(5H)-yl)ethan-1-ol], on hPD-1/hPD-L1, the IC50 is 20.1 nM and the “inhibitory activity … compared with BMS-202” value is listed as “superior to that of the compound BMS-202”.
`OCCN1CCc2nc(OCc3cccc(-c4ccccc4Cl)c3Cl)ccc2C1` [I-D-20, 2-(2-((2,2'-dichloro-[1,1'-biphenyl]-3-yl)methoxy)-7,8-dihydro-1,6-naphthyridin-6(5H)-yl)ethan-1-ol] came in with a 50% inhibitory concentration (IC50) at hPD-1/hPD-L1 of 70 to 1000 nM.
Consider `OCCN1CCc2nc(OCc3cccc(-c4ccccc4)c3Cl)ccc2C1` [I-D-21, 2-(2-((2-chloro-[1,1'-biphenyl]-3-yl)methoxy)-7,8-dihydro-1,6-naphthyridin-6(5H)-yl)ethan-1-ol], for which, at hPD-1/hPD-L1, the IC50 amounted to 31.1 nM and the “inhibitory activity … compared with BMS-202” value is given as “superior to that of the compound BMS-202”.
The like results for `OCCN1CCc2nc(OCc3cccc(-c4ccccc4F)c3F)ccc2C1` [I-D-22, 2-(2-((2,2'-difluoro-[1,1'-biphenyl]-3-yl)methoxy)-7,8-dihydro-1,6-naphthyridin-6(5H)-yl)ethan-1-ol] were, in that order, 10.5 nM and “superior to that of the compound BMS-202”.
`Cc1ccccc1-c1cccc(COc2ccc3c(n2)CCN(CCO)C3)c1F` [I-D-23, 2-(2-((2-fluoro-2'-methyl-[1,1'-biphenyl]-3-yl)methoxy)-7,8-dihydro-1,6-naphthyridin-6(5H)-yl)ethan-1-ol]: the IC50 at hPD-1/hPD-L1 lay in the range of 70 to 1000 nM.
As for `OCCN1CCc2nc(OCc3cccc(-c4ccccc4Cl)c3F)ccc2C1` [I-D-24, 2-(2-((2'-chloro-2-fluoro-[1,1'-biphenyl]-3-yl)methoxy)-7,8-dihydro-1,6-naphthyridin-6(5H)-yl)ethan-1-ol], the MTD (in general, the highest dose tested that stayed within the study's limit of toxicity) in series [4] was at least 2000 mg/kg. This molecule also gave a 50% inhibitory concentration (IC50) on hPD-1/hPD-L1 of 70 to 1000 nM.
`OCCN1CCc2nc(OCc3cccc(-c4ccccc4)c3F)ccc2C1` [I-D-25, 2-(2-((2-fluoro-[1,1'-biphenyl]-3-yl)methoxy)-7,8-dihydro-1,6-naphthyridin-6(5H)-yl)ethan-1-ol] displayed an IC50 on hPD-1/hPD-L1 of 70 to 1000 nM.
As to `O=C(O)CN1CCc2nc(OCc3cccc(-c4ccccc4F)c3Cl)ccc2C1` [I-D-26, 2-(2-((2-chloro-2'-fluoro-[1,1'-biphenyl]-3-yl)methoxy)-7,8-dihydro-1,6-naphthyridin-6(5H)-yl)acetic acid], in series [4], the MTD was at least 2000 mg/kg. In the series with SD rats [1], the “gross observation, test sample-related changes” value is given as “No test sample-related changes were observed grossly” and the mortality or moribundity entry is “No mortality or moribundity was observed”. Besides, the “clinical observations” value with SD rats [2] was “normal water intake and food intake, normal activity, and normal body weight, with no significant abnormalities”. In series [3], the Tumor inhibition rate entry is “+++ ("+++" indicates a tumor inhibition rate of more than 60%)” and the tumor-inhibiting efficacy result is “significant tumor-inhibiting efficacy”.
Turning to `Fc1ccccc1-c1cccc(COc2ccc3c(n2)CCNC3)c1Cl` [I-D-27, 2-((2-chloro-2'-fluoro-[1,1'-biphenyl]-3-yl)methoxy)-5,6,7,8-tetrahydro-1,6-naphthyridine], the MTD in series [4] was at least 2000 mg/kg. For the same molecule, in the series with SD rats [1], the “gross observation, test sample-related changes” value was “No test sample-related changes were observed grossly” and the mortality or moribundity result is reported as “No mortality or moribundity was observed”. For the same molecule, in the series with SD rats [2], the “clinical observations” value is “normal water intake and food intake, normal activity, and normal body weight, with no significant abnormalities”. In series [3], the “general state of tumor-bearing animals during administration (water and food intake, activity, body weight, toxicity)” value is “normal water intake and food intake, normal activity, normal body weight, and no toxicity manifestations”; the Tumor inhibition rate result is “+++ ("+++" indicates a tumor inhibition rate of more than 60%)”; the tumor-inhibiting efficacy result is “significant tumor-inhibiting efficacy”. Besides, on hPD-1/hPD-L1, the IC50 was 10.1 nM and the “inhibitory activity … compared with BMS-202” value is reported as “superior to that of the compound BMS-202”.
`O=CCN1CCc2nc(OCc3cccc(-c4ccccc4F)c3Cl)ccc2C1` [I-D-28, 2-(2-((2-chloro-2'-fluoro-[1,1'-biphenyl]-3-yl)methoxy)-7,8-dihydro-1,6-naphthyridin-6(5H)-yl)acetaldehyde]: at hPD-1/hPD-L1, the half-inhibitory concentration (IC50) is 24.2 nM and the “inhibitory activity … compared with BMS-202” value is given as “superior to that of the compound BMS-202”.
The like results for `O=C(O)CN1CCc2nc(OCc3cccc(-c4ccccc4F)c3)ccc2C1` [I-D-30, 2-(2-((2'-fluoro-[1,1'-biphenyl]-3-yl)methoxy)-7,8-dihydro-1,6-naphthyridin-6(5H)-yl)acetic acid] were, in that order, 13.4 nM and “superior to that of the compound BMS-202”.
Regarding `Cc1c(COc2ccc3c(n2)N(C)CN(CC(=O)O)C3)cccc1-c1cccc(OCCCN2CC[C@@H](O)C2)c1C` [I-E-4, (R)-2-(7-((3'-(3-(3-hydroxypyrrolidin-1-yl)propoxy)-2,2'-dimethyl-[1,1'-biphenyl]-3-yl)methoxy)-1-methyl-1,4-dihydropyrido[2,3-d]pyrimidin-3(2H)-yl)acetic acid], on hPD-1/hPD-L1, the IC50 was 58.5 nM and the “inhibitory activity … compared with BMS-202” value was “superior to that of the compound BMS-202”.
